Where two headings read alike, the source gives them in different places.
Legend:
H460 lung [1] = assay: In vitro cytotoxicity MTT assay, H460 lung; type: cell-based; conditions: n = 3
[2] = test system: HT29 colon cancer cell line; assay: In vitro cytotoxicity MTT assay, HT29 colon; type: cell-based; conditions: n = 3
MIA pancreas [3] = assay: In vitro cytotoxicity MTT assay, MIA pancreas; type: cell-based; conditions: 72 h drug exposure, n = 3
MCF-7 breast [4] = assay: In vitro cytotoxicity MTT assay, MCF-7 breast; type: cell-based; conditions: n = 3
A2780 ovarian [5] = assay: In vitro cytotoxicity MTT assay, A2780 ovarian; type: cell-based; conditions: 72 h drug exposure, n = 3
[6] = test system: cisplatin-resistant ADDP ovarian (subclone of A2780 cell line); assay: In vitro cytotoxicity MTT assay, cisplatin-resistant ADDP ovarian; type: cell-based; conditions: ADDP (cisplatin-resistant), MTT, 72 h drug exposure, n = 3
[7] = test system: Du145 prostate cancer cell line; assay: In vitro cytotoxicity MTT assay, Du145 prostate; type: cell-based; conditions: n = 3
[8] = Lipophilicity by RP-HPLC (log kw); type: physicochemical; conditions: capacity factor extrapolated to 100% water
Method: HPLC experiments were executed on an Agilent (Melbourne, Australia) Technologies 1260 Infinity instrument equipped with a Phenomenex (Sydney, Australia) Onyx^TM Monolithic C18 reverse phase column (100 × 4.6 mm, 130 Å). The mobile phase was comprised of 0.06% TFA in water (solvent A) and 0.06% TFA in an acetonitrile-water mixture (9:1) (solvent B). A sample injection volume of 10 µL was used at a flow rate of 1 mL/min and eluted over a gradient of 0–100% for 15 min. A PDA was used to detect the eluting peaks at 254 nm. Lipophilicity experiments to determine logkw values were undertaken following previously published methods. Rather than a gradient, different isocratic ratios ranging from 28–56% of solvent B were employed and the retention times measured for each complex. Potassium iodide was used as an external dead volume marker to determine the dead time of the column. The following equation was used to calculate the capacity factors:(1) k=tr−t0/t0 where k is the capacity factor, tr is the retention time of the analyte, and t0 is the dead time. Following this, log k was plotted against the percentage of ACN. Five different concentrations of ACN were used to produce a linear plot comprised of R^2 > 0.99. This graph produced the following equation:(2) logk=Sφ+logkw where S is the slope, φ is the % ACN, and the y-intercept, represented as logkw , is the capacity factor of the compound in 100% water.
Lipophilicity studies were carried out to determine the logkw of each complex. This was ascertained through a RP-HPLC based approach whereby complexes were eluted at several isocratic ratios. In turn, retention times were employed as in Equation (1), where the capacity factor (k) was calculated. The log k value at each ratio was then plotted against the percentage of the organic solvent used in solvent B, producing a linear equation that allowed for logkw to be extrapolated (Figure S43). The logkw value represents the retention factor in a 100% aqueous solution; thus, higher values indicate more lipophilic compounds. While this method for determining lipophilicity is slightly different from the shake-flask method, it has been used previously to compare a series of complexes that are structurally similar and is fitting for this group of complexes.

[9] = test system: MCF10A breast cell line (non-tumour derived); assay: In vitro cytotoxicity MTT assay, non-tumour MCF10A breast; type: cell-based; conditions: MCF10A (non-cancerous), 72 h drug exposure, n = 3
A431 skin [10] = assay: In vitro cytotoxicity MTT assay, A431 skin; type: cell-based; conditions: n = 3
SJ-G2 glioblastoma [11] = assay: In vitro cytotoxicity MTT assay, SJ-G2 glioblastoma; type: cell-based; conditions: 72 h drug exposure, n = 3
BE2-C neuroblastoma [12] = assay: In vitro cytotoxicity MTT assay, BE2-C neuroblastoma; type: cell-based; conditions: 72 h drug exposure, n = 3
[13] = Preliminary NMR reduction study with ascorbic acid; type: physicochemical; conditions: D2O with 10X PBS, 37 °C
Method: Given that 1–4 were designed on the premise of functionating as prodrugs, it is anticipated that these complexes be reduced to platinum(II) and release their respective axial ligands, which will allow each component to exert its activity. To explore this possibility, preliminary NMR reduction studies were undertaken for 3. The sample was prepared in D2O with 10X PBS before ascorbic acid was added, and the sample was monitored by ^1H NMR at 37 °C. After the addition of ascorbic acid, resonances corresponding to the platinum(II) species appeared, with the intensities increasing over time, while the peaks correlating to platinum(IV) species decreased (Figure 5). Following this, ^195Pt NMR was carried out in order to confirm that the platinum(II) species remained intact.

U87 glioblastoma [14] = assay: In vitro cytotoxicity MTT assay, U87 glioblastoma; type: cell-based; conditions: 72 h drug exposure, n = 3
SJ-G2 glioblastoma [15] = conditions: MTT, 72 h, cited from earlier work
BE2-C neuroblastoma [16] = conditions: MTT, 72 h, cited from earlier work
[17] = test system: HT29 colon cancer cell line; conditions: MTT, 72 h, cited from earlier work
[18] = test system: Du145 prostate cancer cell line; conditions: MTT, 72 h, cited from earlier work
H460 lung [19] = conditions: MTT, 72 h, cited from earlier work
A2780 ovarian [20] = conditions: MTT, 72 h, cited from earlier work
MCF-7 breast [21] = conditions: MTT, 72 h, cited from earlier work
[22] = test system: cisplatin-resistant ADDP ovarian (subclone of A2780 cell line); conditions: MTT, 72 h, ref [2] Macias et al., Eur. J. Chem. 2015; cited from earlier work
U87 glioblastoma [23] = conditions: MTT, 72 h, cited from earlier work
[24] = test system: MCF10A breast cell line (non-tumour derived); conditions: MTT, 72 h, cited from earlier work
MIA pancreas [25] = conditions: MTT, 72 h, cited from earlier work
A431 skin [26] = conditions: MTT, 72 h, cited from earlier work
[27] = ref [2] Macias et al., Eur. J. Chem. 2015
[28] = ref [1] Deo et al., Dalton Trans. 2019

Molecule	GI50 (H460 lung [1]; 72 h drug exposure) [nM]	GI50 ([2]; 72 h drug exposure) [nM]	GI50 (MIA pancreas [3]) [nM]	GI50 (MCF-7 breast [4]; 72 h drug exposure) [nM]	GI50 (A2780 ovarian [5]) [nM]	GI50 [6] [nM]	GI50 ([7]; 72 h drug exposure) [nM]	Log kw [8]	GI50 [9] [nM]	GI50 (A431 skin [10]; 72 h drug exposure) [nM]	GI50 (SJ-G2 glioblastoma [11]) [nM]	GI50 (BE2-C neuroblastoma [12]) [nM]	GI50 (U87 glioblastoma [14]) [nM]	also measured
COc1ccc2c(c1)c(CC(=O)[O][Pt-2]13([OH])([NH2+]C4CCCCC4[NH2+]1)[n+]1cccc4ccc5ccc[n+]3c5c41)c(C)n2C(=O)c1ccc(Cl)cc1.O=[N+]([O-])[O-].O=[N+]([O-])[O-] (stereo not shown) [compound 1, [Pt(Phen)(SSDACH)(Indomethacin)(OH)](NO3)2]	370 ± 55	83 ± 40	330	740 ± 230	390 ± 87	350 ± 81	160 ± 54	1.08	340 ± 100	400 ± 84	970 ± 290			
[Pt(Phen)(SSDACH)(Aspirin)(OH)](NO3)2 [compound 3]	350 ± 20	140 ± 10	160 ± 30	390 ± 80	260 ± 30	200	140 ± 10	0.41	210 ± 29	670 ± 100	360 ± 60	620 ± 90	600 ± 60	reduction by ascorbic acid (1H and 195Pt NMR) [13]: reduction to its platinum(II) congener
Cc1c(C)c2cccnc2c2ncccc12.N[C@H]1CCCC[C@@H]1N.[Cl-].[Cl-].[Pt+2] [56MESS(II)]	28 ± 4.7	15 ± 6.2	22	33 ± 12	39 ± 7.7	27 ± 4.1	10 ± 1.3		25 ± 10	36 ± 11	150	86 ± 3	76 ± 8.7	
Cc1c(C)c2cccnc2c2ncccc12.N[C@H]1CCCC[C@@H]1N.O=[N+]([O-])[O-].O=[N+]([O-])[O-].[OH-].[OH-].[Pt+4] [56MESS(IV)]	190 ± 150	36 ± 7	43 ± 2.5	480 ± 140	56 ± 7.1	170 ± 120	15 ± 2.6		61 ± 7.3	120 ± 22	210 ± 45	240 ± 22	190 ± 23	
COc1ccc2c(c1)c(CC(=O)O)c(C)n2C(=O)c1ccc(Cl)cc1 [Indomethacin, indomethacin]			> 50000								> 50000		> 50000	GI50 (H460 lung [1]; Homo sapiens, NCI-H460, 72 h drug exposure): > 50000 nM; GI50 ([2]; Homo sapiens, HT-29, 72 h drug exposure): > 50000 nM; GI50 (BE2-C neuroblastoma [12]; Homo sapiens, BE(2)-C): > 50000 nM; GI50 (MCF-7 breast [4]; Homo sapiens, MCF7, 72 h drug exposure): > 50000 nM; GI50 (A2780 ovarian [5]; Homo sapiens): 5700 ± 800 nM; GI50 ([6]; Homo sapiens, A2780): > 50000 nM; GI50 ([7]; Homo sapiens, DU-145, 72 h drug exposure): > 50000 nM; GI50 ([9]; Homo sapiens, MCF-10A): > 50000 nM; GI50 (A431 skin [10]; Homo sapiens, A-431, 72 h drug exposure): > 50000 nM
N.N.O=C([O-])C1(C(=O)[O-])CCC1.[Pt+2] [Carboplatin, carboplatin]														GI50 (SJ-G2 glioblastoma [15]; [27]): 5700 nM; GI50 (BE2-C neuroblastoma [16]; [27]): 18700 nM; GI50 [17, 27]: > 50000 nM; GI50 [18, 27]: 14700 nM; GI50 (H460 lung [19]; [27]): 14000 ± 1000 nM; GI50 (A2780 ovarian [20]; [27]): 9200 ± 2900 nM; GI50 (MCF-7 breast [21]; [27]): > 50000 nM; GI50 [22]: > 50000 nM; GI50 (U87 glioblastoma [23]; [27]): > 50000 nM; GI50 [24, 27]: > 50000 nM; GI50 (MIA pancreas [25]; [27]): > 50000 nM; GI50 (A431 skin [26]; [27]): 24300 nM
CC(=O)Oc1ccccc1C(=O)[O-].Cc1c(C)c2cccnc2c2ncccc12.N[C@H]1CCCC[C@@H]1N.O=[N+]([O-])[O-].O=[N+]([O-])[O-].[OH-].[Pt+4] [compound 4, [Pt(56Me2Phen)(SSDACH)(Aspirin)(OH)](NO3)2]	15 ± 1	7 ± 1	8 ± 1	36 ± 10	22	12	3	0.65	9 ± 2	31	63 ± 6	98 ± 21	24	
O=C1[O][Pt]2([NH][C@@H]3CCCC[C@H]3[NH]2)[O]C1=O [Oxaliplatin, oxaliplatin]														GI50 (SJ-G2 glioblastoma [15]; [27]): 3000 ± 1200 nM; GI50 (BE2-C neuroblastoma [16]; [27]): 900 ± 200 nM; GI50 [17, 27]: 900 ± 200 nM; GI50 [18, 27]: 2900 ± 400 nM; GI50 (H460 lung [19]; [27]): 1600 ± 100 nM; GI50 (A2780 ovarian [20]; [27]): 160 nM; GI50 (MCF-7 breast [21]; [27]): 500 ± 100 nM; GI50 [22]: 822 ± 130 nM; GI50 (U87 glioblastoma [23]; [27]): 1800 ± 200 nM; GI50 (MIA pancreas [25]; [27]): 900 nM; GI50 (A431 skin [26]; [27]): 4100 ± 500 nM
N[C@H]1CCCC[C@@H]1N.O=[N+]([O-])[O-].O=[N+]([O-])[O-].[OH-].[OH-].[Pt+4].c1cnc2c(c1)ccc1cccnc12 [PHENSS(IV)]														GI50 (SJ-G2 glioblastoma [15]; [28]): 1700 nM; GI50 (BE2-C neuroblastoma [16]; [28]): 3000 ± 530 nM; GI50 [17, 28]: 710 ± 300 nM; GI50 [18, 28]: 310 ± 92 nM; GI50 (H460 lung [19]; [28]): 1700 ± 200 nM; GI50 (A2780 ovarian [20]; [28]): 800 ± 84 nM; GI50 (MCF-7 breast [21]; [28]): 16000 nM; GI50 (U87 glioblastoma [23]; [28]): 4900 ± 610 nM; GI50 [24, 28]: 1700 nM; GI50 (MIA pancreas [25]; [28]): 3400 nM; GI50 (A431 skin [26]; [28]): 4300 ± 530 nM
COc1ccc2c(c1)c(CC(=O)[O][Pt-2]13([OH])([NH2+]C4CCCCC4[NH2+]1)[n+]1cccc4c(C)c(C)c5ccc[n+]3c5c41)c(C)n2C(=O)c1ccc(Cl)cc1.O=[N+]([O-])[O-].O=[N+]([O-])[O-] (stereo not shown) [compound 2, [Pt(56Me2Phen)(SSDACH)(Indomethacin)(OH)](NO3)2]	22 ± 4.2	13 ± 3.6	21 ± 2	37 ± 2.3	34 ± 8.6	24 ± 6.1	7.5 ± 3.6	1.28	23 ± 8.2	40 ± 14	170 ± 19	130 ± 41	47 ± 4.9	
N[C@H]1CCCC[C@@H]1N.[Cl-].[Cl-].[Pt+2].c1cnc2c(c1)ccc1cccnc12 [PHENSS(II)]	300 ± 32	87 ± 27	240 ± 22	250 ± 41	290 ± 37	230 ± 49	110 ± 27		240 ± 60	340 ± 100	440 ± 55	390 ± 60	1200 ± 340	
